On the set-up of data set [1]: method as in earlier work. To be noted: cited from earlier work.
The next data set deals with T1, aldehyde oxidase (Homo sapiens, UniProt Q06278).
T1 construct: purchased Gentest Corp., Woburn, MA, USA; host or cells: insect cells (baculovirus)
T1 sequence (Q06278 1-1338): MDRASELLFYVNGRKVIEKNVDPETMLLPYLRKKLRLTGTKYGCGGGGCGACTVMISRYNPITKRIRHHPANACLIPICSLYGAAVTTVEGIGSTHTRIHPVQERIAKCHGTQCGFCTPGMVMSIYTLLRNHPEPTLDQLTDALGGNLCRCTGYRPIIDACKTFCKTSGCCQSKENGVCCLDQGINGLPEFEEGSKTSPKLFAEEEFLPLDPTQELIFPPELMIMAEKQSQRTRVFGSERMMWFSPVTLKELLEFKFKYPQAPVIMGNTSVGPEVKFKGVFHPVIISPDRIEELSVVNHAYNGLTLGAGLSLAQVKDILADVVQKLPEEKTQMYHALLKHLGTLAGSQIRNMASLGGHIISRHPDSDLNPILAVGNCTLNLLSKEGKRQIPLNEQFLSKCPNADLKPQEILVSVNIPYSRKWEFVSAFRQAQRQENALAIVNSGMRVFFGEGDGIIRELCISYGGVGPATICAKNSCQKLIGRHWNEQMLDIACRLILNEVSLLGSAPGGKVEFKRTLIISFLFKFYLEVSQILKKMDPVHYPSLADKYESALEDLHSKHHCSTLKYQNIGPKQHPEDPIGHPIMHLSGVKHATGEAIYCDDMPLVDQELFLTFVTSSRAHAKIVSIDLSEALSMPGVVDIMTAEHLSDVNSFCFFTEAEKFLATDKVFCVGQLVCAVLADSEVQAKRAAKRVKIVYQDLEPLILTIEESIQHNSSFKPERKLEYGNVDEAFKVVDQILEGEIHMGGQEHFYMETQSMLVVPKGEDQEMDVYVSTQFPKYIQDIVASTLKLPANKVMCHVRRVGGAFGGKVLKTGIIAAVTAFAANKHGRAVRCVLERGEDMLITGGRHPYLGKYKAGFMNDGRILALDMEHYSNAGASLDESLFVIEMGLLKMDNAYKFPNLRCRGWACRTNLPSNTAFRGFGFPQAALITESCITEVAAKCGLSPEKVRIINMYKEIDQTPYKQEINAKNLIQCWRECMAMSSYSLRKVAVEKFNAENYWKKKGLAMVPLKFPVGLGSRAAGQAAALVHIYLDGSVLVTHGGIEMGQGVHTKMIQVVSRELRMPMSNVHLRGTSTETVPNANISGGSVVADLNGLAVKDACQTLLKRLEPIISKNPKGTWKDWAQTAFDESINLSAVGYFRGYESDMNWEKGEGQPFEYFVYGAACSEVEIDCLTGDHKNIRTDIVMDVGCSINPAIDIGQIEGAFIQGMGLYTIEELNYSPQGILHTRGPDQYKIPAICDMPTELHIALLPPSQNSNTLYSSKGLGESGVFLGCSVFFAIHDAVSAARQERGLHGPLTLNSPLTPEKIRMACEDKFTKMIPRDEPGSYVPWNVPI
As to the kind of experiment: Oxidation of cabozantinib by recombinant aldehyde oxidase. It is filed as in vitro ADME. To be noted: human recombinant enzyme, data not shown.

A further data set deals with T2, FMO1 (Homo sapiens, UniProt Q01740).
T2 construct: purchased Gentest Corp., Woburn, MA, USA; host or cells: insect cells (baculovirus)
T2 sequence (Q01740 1-532): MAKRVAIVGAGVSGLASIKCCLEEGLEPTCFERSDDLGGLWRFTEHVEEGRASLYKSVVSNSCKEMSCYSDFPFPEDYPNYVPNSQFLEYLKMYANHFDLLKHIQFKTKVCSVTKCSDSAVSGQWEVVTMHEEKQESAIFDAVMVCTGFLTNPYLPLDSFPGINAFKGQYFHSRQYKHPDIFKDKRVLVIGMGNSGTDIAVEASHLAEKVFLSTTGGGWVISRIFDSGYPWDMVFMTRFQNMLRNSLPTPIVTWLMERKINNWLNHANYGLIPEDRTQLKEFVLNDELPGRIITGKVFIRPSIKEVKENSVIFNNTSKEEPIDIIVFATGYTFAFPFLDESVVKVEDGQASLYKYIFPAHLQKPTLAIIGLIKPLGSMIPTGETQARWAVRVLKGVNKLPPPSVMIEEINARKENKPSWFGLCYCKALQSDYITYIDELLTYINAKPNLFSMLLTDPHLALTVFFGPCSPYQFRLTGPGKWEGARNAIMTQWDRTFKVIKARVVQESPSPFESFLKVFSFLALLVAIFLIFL
As to the kind of experiment: Oxidation of cabozantinib by recombinant FMO1. It is filed as in vitro ADME. The settings on record: human recombinant enzyme, data not shown. From the text: The purity of all chemicals met the standards of American Chemical Society, unless otherwise noted. […] Microsomes from livers of twelve human donors were obtained from Gentest Corp. (Woburn, MA, USA) (Lot. no. HG43-1, HG103, HG74, HG93, HG24, HG27, HG23, HG32, HK31, HK34, HG03 and HG42). […] Human recombinant enzymes were used in the forms of Supersomes™ and obtained from Corning (Corning, NY, USA). In Supersomes™, microsomal fractions were isolated from insect cells that were transfected with baculovirus constructs containing cDNA of human CYP enzymes (CYP1A1/2, 1B1, 2A6, 2B6, 2C8/9/18/19/, 2D6, 2E1, 3A4). The Supersomes™ also express NADPH:CYP oxidoreductase (POR). However, because they are microsomes (particles of broken endoplasmic reticulum), other enzymes (proteins) of the endoplasmic reticulum membrane (like NADH:cytochrome b5 reductase and cytochrome b5) are also expressed at basal levels in these Supersomes™. We also utilized Supersomes™, which overexpressed cytochrome b5, in a molar ratio of CYP to cytochrome b5 of 1 to 5. In Supersomes™, where cytochrome b5 was not overexpressed (see above), pure cytochrome b5 was added to reach a molar ratio of CYP to cytochrome b5 of 1 to 5. Reconstitution of Supersomes™ with purified cytochrome b5 was performed as described previously. Human recombinant FMOs and AO were also used in the forms of Supersomes™ (Gentest Corp., Woburn, MA, USA).

The target in a further data set is CYP3A4 (Homo sapiens, UniProt P08684). The settings on record: cited from earlier work.
CYP3A4, sequence (P08684 whole entry): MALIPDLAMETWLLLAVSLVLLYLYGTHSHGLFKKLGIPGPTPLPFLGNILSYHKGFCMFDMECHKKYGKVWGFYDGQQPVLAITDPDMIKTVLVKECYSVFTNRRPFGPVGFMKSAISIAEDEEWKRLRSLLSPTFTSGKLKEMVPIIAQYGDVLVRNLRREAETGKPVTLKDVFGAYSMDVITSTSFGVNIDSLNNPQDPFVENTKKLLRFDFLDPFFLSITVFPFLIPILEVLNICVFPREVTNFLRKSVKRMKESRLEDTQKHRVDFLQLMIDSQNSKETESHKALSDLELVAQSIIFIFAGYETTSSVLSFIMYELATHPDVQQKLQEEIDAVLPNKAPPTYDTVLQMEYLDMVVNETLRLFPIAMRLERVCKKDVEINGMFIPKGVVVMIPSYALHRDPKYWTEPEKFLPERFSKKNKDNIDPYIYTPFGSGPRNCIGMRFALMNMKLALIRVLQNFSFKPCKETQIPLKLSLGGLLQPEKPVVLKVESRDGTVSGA
On the set-up of data set [2]: concentration or dose not given beside the values. The settings on record: metastatic renal cell carcinoma patients; cited from earlier work.

Molecules are shown by their SMILES.

Take `COc1cc2nccc(Oc3ccc(NC(=O)C4(C(=O)Nc5ccc(F)cc5)CC4)cc3)c2cc1OC` [cabozantinib, N′1-{4-[(6,7-dimethoxyquinolin-4-yl)oxy]phenyl}-N1-(4-fluorophenyl)cyclopropane-1,1-dicarboxamide]: the “Bound by proteins in human plasma” value in data set [1] is ≥ 99.7%. The “Oxidation of cabozantinib by aldehyde oxidase” value at aldehyde oxidase is on record as “ineffective”. The “Oxidation of cabozantinib by FMO 1” value at FMO1 is “ineffective”. Moreover, the “Inhibition of CYP3A4-mediated testosterone 6β-hydroxylation” value on CYP3A4 was “did not inhibit”. Further, the “Plasma concentration, mean” value in data set [2] is recorded as 973 ± 501 ng/mL.

The record behind these values is article PMC7759869 (Biomedicines, 2020).
